Source: PubChem BioAssay (NCI)
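Dose response: 5 concentrations. Exposure: 48 h. Format: 96-well plates. Endpoint: linear interpolation; highest concentration if not reached. At the GI50, growth is halved. TGI denotes the concentration required for complete inhibition of growth.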

Key:
Assay in all cases: NCI-60 cell line screen, 48 h
[1] = tested on: NCI-H460 lung
[2] = tested on: OVCAR-4 ovarian
[3] = tested on: HOP-62 NSCLC
[4] = tested on: UACC-62 melanoma
[5] = tested on: SK-MEL-2 melanoma
[6] = tested on: IGROV1 ovarian
[7] = tested on: HCT-116 colon
[8] = tested on: SW-620 colon
[9] = tested on: SF-268 CNS
[10] = tested on: HT29 colon

Row | SMILES | TGI [1] [µM] | TGI [2] [µM] | TGI [3] [µM] | TGI [4] [µM] | TGI [5] [µM] | TGI [6] [µM] | TGI [7] [µM] | TGI [8] [µM] | TGI [9] [µM] | TGI [10] [µM] | GI50 [1] [µM] | GI50 [2] [µM] | GI50 [3] [µM] | GI50 [4] [µM] | GI50 [5] [µM] | GI50 [6] [µM] | GI50 [7] [µM] | GI50 [8] [µM] | GI50 [9] [µM] | GI50 [10] [µM]
1 | Cc1ccc(S(=O)(=O)N2CCSCCSCCSCCSCC2)cc1 | > 100 | 64.2 | > 57 | 38.1 | > 53.6 | > 100 | > 100 | > 100 | > 75.8 | > 100 | – | – | – | – | – | – | – | – | – | –
2 | O=C1NCCCc2nonc21 | > 100 | > 100 | > 100 | > 100 | > 100 | > 100 | > 100 | > 100 | > 100 | > 100 | – | – | – | – | – | – | – | – | – | –
3 | CCC(C(=O)O)c1ccc(OCc2ccccc2)cc1 (stereo not given) | > 100 | > 100 | > 100 | > 100 | > 100 | > 100 | > 100 | > 100 | > 100 | > 100 | – | – | – | – | – | – | – | – | – | –
4 | NC(=O)C(=O)N/N=C1/c2ccccc2CC1C1(O)C(=O)Nc2c(Cl)cc(Cl)cc21 (stereo not given) | > 100 | > 100 | > 100 | > 100 | > 100 | > 100 | > 100 | > 100 | > 100 | > 100 | – | – | – | – | – | – | – | – | – | –
5 | C/C(N=Nc1nc2ccccc2s1)=C1/C=CC=CN1O | > 100 | > 100 | > 100 | > 100 | > 100 | > 100 | > 100 | > 100 | > 100 | > 100 | – | – | – | – | – | – | – | – | – | –
6 | CC(C)(C)NC(=O)[C@H]1CC[C@H]2[C@@H]3CC=C4NC(=O)CC[C@]4(C)[C@H]3CC[C@]12C | > 100 | > 100 | > 100 | > 100 | > 100 | > 100 | > 100 | > 100 | > 100 | > 100 | – | – | – | – | – | – | – | – | – | –
7 | CN(C)C(CN)CC1=C(CC(CN)N(C)C)CCC1 (stereo not given) | > 100 | > 100 | > 100 | > 100 | > 100 | > 100 | > 100 | > 100 | > 100 | > 100 | – | – | – | – | – | – | – | – | – | –
8 | COc1ccc(CC(CO)NC(=O)OCc2ccccc2)cc1Oc1ccc(CC(CO)NC(=O)OCc2ccccc2)cc1 (stereo not given) | 66.6 | > 100 | 31.8 | 29.5 | 32.4 | 29.3 | 32.3 | > 100 | 29.4 | 23.6 | – | – | – | – | – | – | – | – | – | –
9 | Cc1ccc(S(=O)(=O)Oc2cc(N)c3c(n2)CCC3)cc1 | > 100 | > 100 | > 100 | > 100 | > 100 | > 100 | > 100 | > 100 | > 100 | > 100 | – | – | – | – | – | – | – | – | – | –
10 | COc1ccc2c(c1)O/C(=C\c1cccc(OCC(=O)Nc3nc4c(s3)CCCC4)c1)C2=O | > 100 | > 100 | > 55.4 | > 100 | > 30.6 | 2.17 | > 100 | > 100 | 12.3 | > 100 | > 100 | > 100 | > 34 | > 46.2 | 12.5 | 0.692 | > 43.8 | > 100 | 5.33 | 25.1
11 | CC(CC(C#N)(c1ccccc1)c1ccccc1)N1CCCCC1 (stereo not given) | 31.7 | > 100 | 88.4 | 59.1 | 46.4 | > 100 | 57.7 | 49.5 | > 100 | 51 | – | – | – | – | – | – | – | – | – | –
12 | CCC1=CCC23C(=O)C=CC(=O)C2(C1)C(=O)c1cccc(OC)c1C3=O (stereo not given) | 62.5 | 26.1 | 42.9 | 37.2 | > 100 | 26.9 | 30.4 | 34 | 36.2 | 55.8 | – | – | – | – | – | – | – | – | – | –
13 | CCCCOC(C)(C)/C=C/C(O)[C@](C)(O)[C@H]1[C@H](O)C[C@@]2(C)[C@@H]3CCc4c(cc(OC5OC(CO)C(O)C(O)C5O)c(O)c4C)C3(C)C(=O)C[C@]12C (stereo not given in full) | > 100 | > 100 | > 100 | > 100 | > 100 | > 100 | > 100 | > 100 | > 100 | > 100 | – | – | – | – | – | – | – | – | – | –
14 | COc1ccccc1NC(=O)CC(=O)N1N=C(C)C(N=Nc2ccc(S(N)(=O)=O)cc2)C1=O (stereo not given) | > 100 | > 100 | > 100 | > 100 | > 100 | > 100 | > 100 | > 100 | > 100 | > 100 | – | – | – | – | – | – | – | – | – | –
15 | O=C1/C(=C/c2ccccc2S)N=C(c2ccccc2)N1c1nc2ccc(Sc3ccccc3)cc2[nH]1 | 57 | > 100 | > 100 | 73.5 | 36.2 | > 100 | > 100 | > 100 | > 100 | 43.1 | – | – | – | – | – | – | – | – | – | –
16 | CCOP(=O)(OCC)C1C(CO)OC(n2ccc(=O)[nH]c2=O)C1O (stereo not given) | > 100 | > 100 | > 100 | > 100 | > 100 | > 100 | > 100 | > 100 | > 100 | > 100 | – | – | – | – | – | – | – | – | – | –

Row | SMILES | TGI [1] [µM] | TGI [2] [µM] | TGI [3] [µM] | TGI [4] [µM] | TGI [5] [µM] | TGI [6] [µM] | TGI [7] [µM] | TGI [8] [µM] | TGI [9] [µM] | TGI [10] [µM] | GI50 [1] [µM] | GI50 [2] [µM] | GI50 [3] [µM] | GI50 [4] [µM] | GI50 [5] [µM] | GI50 [6] [µM] | GI50 [7] [µM] | GI50 [8] [µM] | GI50 [9] [µM] | GI50 [10] [µM]
17 | Cc1ccccc1OC(C)C(=O)NN1C(=O)CC(=O)N(c2ccc(Cl)cc2)C1=S (stereo not given) | > 100 | > 100 | > 100 | > 100 | > 100 | > 100 | 53 | > 100 | > 100 | > 100 | – | – | – | – | – | – | – | – | – | –
18 | COc1ccc(-c2cc(=O)c3cc4c(cc3[nH]2)OCO4)c(OC)c1OC | > 100 | > 100 | > 100 | > 100 | > 100 | > 100 | > 100 | > 100 | > 100 | > 100 | – | – | – | – | – | – | – | – | – | –
19 | O=C1C(c2c(O)[nH]c3ccc(S(=O)(=O)O)cc23)=Nc2ccccc21 | > 100 | > 100 | > 100 | > 100 | > 100 | > 100 | > 100 | > 100 | > 100 | > 100 | – | – | – | – | – | – | – | – | – | –
20 | COc1ccc(Nc2nc3ccc(C(F)(F)F)cc3nc2C(=O)O)cc1OC | 54.6 | > 100 | 75.4 | > 100 | 35.5 | > 100 | 80 | > 100 | > 100 | > 100 | – | – | – | – | – | – | – | – | – | –
21 | C=C(Cl)/C(=C\Cl)CCC(Br)C(C)C (stereo not given) | > 100 | 95.5 | > 100 | > 100 | > 100 | > 100 | > 100 | 37.9 | > 100 | > 100 | – | – | – | – | – | – | – | – | – | –
22 | CCOC(=O)c1[nH]cc(C)c1-c1ccn(-c2ccccc2)c1 | > 100 | > 100 | > 100 | > 100 | > 100 | 55.9 | > 100 | > 100 | > 100 | > 100 | – | – | – | – | – | – | – | – | – | –
23 | C/C(=C\c1ccccc1)C(=O)CCN1CCOCC1 | > 100 | 32.9 | > 100 | 32.6 | > 59.9 | > 61.9 | > 56.4 | 30.9 | > 85.6 | 35.7 | – | – | – | – | – | – | – | – | – | –
24 | COCOc1ccc(OC)cc1 | > 100 | > 100 | > 100 | > 100 | > 100 | > 100 | > 100 | > 100 | > 100 | > 100 | – | – | – | – | – | – | – | – | – | –
25 | c1ccc2c(c1)[nH]c1nc3cc(-c4ccc5nc6c(nc5c4)[nH]c4ccccc46)ccc3nc12 | > 100 | > 100 | > 100 | > 100 | > 100 | > 100 | > 100 | > 100 | > 100 | > 100 | – | – | – | – | – | – | – | – | – | –
26 | C1CCSCCCCSCCCCSCCCCSC1 | > 100 | > 100 | > 100 | > 100 | > 100 | > 100 | > 100 | > 100 | > 100 | > 100 | – | – | – | – | – | – | – | – | – | –
27 | CCC[C@H]1C(=O)N=C(N)N1C(=O)OCc1ccccc1 | > 100 | > 100 | > 100 | > 100 | > 100 | > 100 | > 100 | > 100 | > 100 | > 100 | – | – | – | – | – | – | – | – | – | –
28 | C=C(C)CCC(=O)[C@](C)(O)[C@H]1[C@H](O)C[C@@]2(C)[C@@H]3CCc4c(cc(OC5OC(CO)C(O)C(O)C5O)c(O)c4C)C3(C)C(=O)C[C@]12C (stereo not given in full) | > 100 | > 100 | > 100 | > 100 | > 100 | > 100 | > 100 | > 100 | > 100 | > 100 | – | – | – | – | – | – | – | – | – | –
29 | CSCCC(NCc1c(O)ccc2c(-c3ccccc3)cc(=O)oc12)C(=O)O (stereo not given) | > 100 | > 100 | > 100 | > 100 | > 100 | > 100 | > 100 | > 100 | > 100 | > 100 | – | – | – | – | – | – | – | – | – | –
30 | O=c1cc(/C=C/c2ccc(O)c(O)c2)oc(/C=C/c2ccc(O)c(O)c2)c1 | 21.2 | 11.7 | 20.2 | 6.43 | 9.97 | 16.6 | 15.5 | > 26.8 | 13.2 | 25.3 | – | – | – | – | – | – | – | – | – | –
31 | O=C1c2ccccc2CN1c1ccc(O)cc1 | > 100 | > 100 | > 100 | > 100 | > 100 | > 100 | > 100 | > 100 | > 100 | > 100 | – | – | – | – | – | – | – | – | – | –
